Data from patent publication US7112715B2, “Transgenic mouse for targeted recombination mediated by modified Cre-ER” (Gie-Cerbm, Centre Europeen de Recherche en Biologie et en …, priority 2000, dated 2006).

Tests used:
[1] = tested on: skin papilloma formation induced by DMBA/TPA; assay: Antitumoral effect of topical retinoic acid on DMBA/TPA-induced skin papilloma; format: in vivo, mouse; conditions: for average number of tumors: ~25 weeks of DMBA/TPA treatment
Protocol: (§1) A single dose of 7,12-dimethylbenz(a)anthracene (DMBA) (5 μg in 100 μl acetone) was applied on the dorsal skin of 10–14 week old mice, 7 weeks before or 16 days after the first Tam or oil (vehicle) treatments. 12-0-tetradecanoylphorbol-13-acetate (TPA) (5 μg in 200 μl acetone) was applied twice a week for 25 to 30 weeks, starting one week after DMBA application. CT and RXRα^ep−/− mice were shaved 7 and 2 days before DMBA treatment, and every second week for 30 and 15 weeks, respectively. 8 weeks after DMBA treatment, all-trans retinoic acid (t-RA, 20 nmoles in ethanol) or vehicle was topically applied 15 min before each TPA application. • 1.10—Determination of the number and size of the tumors
(§2) The length of the papillomas and the diameter of the melanocytic were measured with a Vernier calliper on isofluorane anesthesised mice.

mouse ER LBD (mER) G525R = mouse ER LBD (mER) G525R (Mus musculus, UniProt P19785, G525R); conditions: cited from earlier work
[2] = tested on: fusion protein between the recombinase Cre and the ligand-binding domain of the mutated human nuclear estrogen receptor; conditions: varies between a few percents and 80%; five infections of 8 mg; cited from earlier work
Cre-ER^T3 [3] = target: T1, Cre-ER^T3 (Homo sapiens, UniProt P03372, L544A/M543A); conditions: 1 and 0.1 mg of OHT; day 15
Protocol: Activity of β-galactosidase on sections of the epidermis of the tail of K5-Cre-ER^T2(tg/0)/Rosa^f1/1 and K5-Cre-ER^T3(tg/0)/Rosa^f1/+ mice treated with 1 mg, 0.1 mg, 0.01 mg and 0.001 mg of QHT. The analyses are carried out on the fifteenth day after the start of the treatment (D0).
(§3) The sensitivity to OHT was tested in a first instance by analyzing the intracellular location of the chimeric proteins.

Cre-ER^T3 [4] = target: T1, Cre-ER^T3; conditions: K5-Cre-ER^T3 mice; OHT dose 0.001 mg; day 2
Protocol: (§4) Immunohistochemistry of the chimeric Cre recombinase on sections of the epidermis of K5-Cre-ER^T2 and K5-Cre-ER^T3 mice treated either with 0.1 mg, 0.01 mg or 0.001 mg of OHT and analyzed two days (D 2) after the start of the treatment (D 0). The red color corresponds to labeling with the anti-Cre antibody directed against the Cre protein, and the Cyan color corresponds to DAPI.
(§5) After fixing in 2% paraformaldehyde, frozen sections of 10 μm are blocked in 5% normal goat serum (Vector Laboratories) incubated with the rabbit polyclonal antibody anti-MK6 (Babco). After washing in PBS/0.1% Tween 20, the sections are incubated with the donkey anti-rabbit IgG antibody conjugated with CY3 (Jackson Immuno Research) and then mounted in the Vectashield medium (Vector Laboratories) containing DAPI (4′,6-diamidino-2-phenylindole dihydrochloride; Boehringer Mannheim) (Brocard et al., 1997). The anti-Cre antibodies are used according to Indra et al. (1999). • 1.6—Immunohistochemistry
as §3

Cre-ER^T2 = Cre-ER^T2 (Homo sapiens, UniProt P03372, G400V/L544A/M543A); conditions: K5-Cre-ER^T2 mice; OHT dose 0.001 mg; day 2
Protocol: as §4, §5, §3

melanocytic growths = assay: Melanocytic growths and lymph node melanocytes after DMBA or DMBA/TPA treatment of CT and RXRα^ep−/− mice; format: in vivo, mouse; conditions: for mice with enlarged and pigmented subiliac lymph nodes: 30 weeks
Protocol: A. Dorsal view of CT (K14-Cre-ER^T2(0/0)/RXRα^L2/L2) (left) and RXRα^ep−/− (right) mice 25 weeks after DMBA treatment. Arrows point to some or the melanocytic growths. B. Number of melanocytic growths in skin of CT and RXRα^ep−/− mice 30 weeks after DMBA and DMBA/TPA treatments, as indicated. Values are expressed as mean +/−SEM (n=6). *, p<0.05; ***, p<0.001, C. Size distribution of melanocytic growths in CT and RXRα^ep−/− mice. The number of 1–2 and 2–4 mm melanocytic growths was determined on CT and RXRα^ep−/− mice, 30 weeks after DMBA and DMBA/TPA treatments, as indicated. Values are expressed as mean +/−SEM (m=6).
Photograph of subiliac lymph nodes from CT (a and e) and RXRα^ep−/− (b and f) mice taken 30 weeks after DMBA and DMBA/TPA treatment, respectively. Hematoxylin and eosin stained 5 μm paraffin sections of CT (c and g) and RXRα^ep−/− (d and h) mice after DMBA and DMBA/TPA treatments, respectively. Scale bar, 33 μm.
Subiliac lymph nodes were isolated 30 weeks after DMBA application, fixed in 4% paraformaldehyde, photographed and embedded in paraffin. 5 μm-thick sections were stained with hematoxylin and eosin. • 1.8—Assay of blood parameters
as §1, §2

T1 sequence (P03372 with tags, fused parts or gaps M543A/L544A): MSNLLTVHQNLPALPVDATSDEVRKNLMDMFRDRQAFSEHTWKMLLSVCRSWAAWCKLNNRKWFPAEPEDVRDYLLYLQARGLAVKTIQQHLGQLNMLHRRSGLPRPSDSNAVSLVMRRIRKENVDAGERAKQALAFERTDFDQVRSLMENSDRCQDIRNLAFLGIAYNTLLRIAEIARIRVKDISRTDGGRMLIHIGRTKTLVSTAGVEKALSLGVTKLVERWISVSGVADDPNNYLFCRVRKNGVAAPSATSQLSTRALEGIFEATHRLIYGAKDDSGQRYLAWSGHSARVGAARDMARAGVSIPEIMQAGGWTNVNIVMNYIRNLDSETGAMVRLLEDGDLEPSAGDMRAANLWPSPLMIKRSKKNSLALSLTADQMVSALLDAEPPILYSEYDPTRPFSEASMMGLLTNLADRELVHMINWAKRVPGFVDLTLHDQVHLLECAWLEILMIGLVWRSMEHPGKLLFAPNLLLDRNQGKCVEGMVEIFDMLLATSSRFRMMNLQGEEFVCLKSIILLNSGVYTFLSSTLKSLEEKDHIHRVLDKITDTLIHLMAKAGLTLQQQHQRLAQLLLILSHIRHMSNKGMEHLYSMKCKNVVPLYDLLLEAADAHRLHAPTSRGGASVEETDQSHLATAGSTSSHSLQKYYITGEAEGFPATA
mouse ER LBD (mER) G525R, sequence (P19785 whole entry G525R, the tested form may be a part): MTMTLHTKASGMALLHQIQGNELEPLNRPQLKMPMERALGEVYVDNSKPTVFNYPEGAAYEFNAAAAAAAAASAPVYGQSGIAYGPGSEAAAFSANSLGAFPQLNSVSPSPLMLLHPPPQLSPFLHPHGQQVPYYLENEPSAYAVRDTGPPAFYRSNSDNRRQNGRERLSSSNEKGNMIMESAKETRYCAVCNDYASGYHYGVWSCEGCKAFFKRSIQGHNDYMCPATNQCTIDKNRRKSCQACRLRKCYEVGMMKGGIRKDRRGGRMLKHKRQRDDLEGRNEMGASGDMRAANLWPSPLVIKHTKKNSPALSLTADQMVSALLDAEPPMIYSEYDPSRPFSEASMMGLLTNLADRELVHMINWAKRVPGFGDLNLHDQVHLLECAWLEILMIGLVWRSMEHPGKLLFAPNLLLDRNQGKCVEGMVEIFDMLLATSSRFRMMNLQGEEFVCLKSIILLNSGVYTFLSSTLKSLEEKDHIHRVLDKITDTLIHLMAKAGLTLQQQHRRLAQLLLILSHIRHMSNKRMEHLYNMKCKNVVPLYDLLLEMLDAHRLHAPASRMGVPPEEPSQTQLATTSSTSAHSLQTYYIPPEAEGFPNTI
Cre-ER^T2, sequence (P03372 with tags, fused parts or gaps G400V/M543A/L544A): as the sequence (P03372 with tags, fused parts or gaps M543A/L544A) above, with G465V counted along it

## CC1=C(/C=C/C(C)=C/C=C/C(C)=C/C(=O)O)C(C)(C)CCC1 [t-RA, all-trans retinoic acid]
[1]; CT mice
  tumor formation: efficiently inhibited
[1]; CT mice, 25 weeks of RA treatment, from 2–3 mm, in 3 out of 8 papillomas of 6 mice
  size of the papilloma after treatment: 1 mm
[1]; RA treated CT mice
  size of the tumors: below 2 mm
  average number of tumors: 1
[1]; RA treated RXRα^ep−/− mice
  tumors larger than 12 mm: ~11%
  average number of tumors: ~17
[1]; RXRα^ep−/− mice
  change in size of the papilloma: no decrease in size
[1]; after RA treatment
  number and size of melanocytic growths, RXRα^ep−/− compared to CT mice: increased
[1]; topical, female and male wild-type 129Sv
  skin papilloma formation induced by DMBA/TPA: efficiently blocked

## 4-hydroxytamoxifen [OHT]
Mouse ER LBD (mER) G525R
  effect of the G525R mutation on binding: without adversely affecting the binding
[2]
  efficiency of site-specific recombination in cells expressing the fusion protein: ≤ 80%
Cre-ER^T3 [3]
  excision levels, K5-Cre-ER^T3 versus K5-Cre-ER^T2 line: similar
Cre-ER^T3 [4]
  nuclei strongly labeled with anti-Cre antibodies in the basal layer of the epidermis: about ⅓
Cre-ER^T2
  nuclei labeled with anti-Cre antibodies in the skin: no positive nucleus

## Cc1c2ccccc2c(C)c2c1ccc1ccccc12 [DMBA, 7,12-dimethylbenz(a)anthracene]
Melanocytic growths; DMBA alone
  induction of melanocytic growths, RXRα^ep−/− versus CT mice: ~7 fold
Melanocytic growths; DMBA, CT mice
  mice with enlarged and pigmented subiliac lymph nodes: 0/4
Melanocytic growths; DMBA, RXRα^ep−/− mice
  mice with enlarged and pigmented subiliac lymph nodes: two out of 4
Melanocytic growths; DMBA, electron microscopy
  melanosomes per melanocyte, RXRα^ep−/− versus CT melanocytes: ~10 fold
